Test system: S. aureus
Experiment: Sustained inhibition biofilm assay, bacterial
Format: cell-based, Staphylococcus aureus
Details: sustained inhibition assay; S. aureus; 1% amino acid (unless specifically noted); p≤0.001
Protocol: Two types of biofilm assays were performed: a sustained inhibition assay and a disruption assay. The sustained inhibition assay assesses the compound's ability to prevent biofilm development throughout all stages of biofilm formation, while the disruption assay assesses the compound's ability to break up an existing mature biofilm. These assays are described in detail in the following article: Lohse, M. B., Gulati, M., Valle Arevalo, A., Fishburn, A., Johnson, A. D., and Nobile, C. […] Antimicrobial Agents and Chemotherapy 61: e02749-16.
All bacterial biofilm solutions were prepared in Trypic Soy Broth (TSB), supplemented with 1% glucose (henceforth referred to as TSB-G). All subsequent procedures were performed in a manner that maintained sterility. A solution of each amino acid to be tested was prepared in weight to volume concentrations ranging from 0.1-5.0%. Amino acids were also tested in combinations. Compound solutions were homogenized with gentle agitation in the dark (4° C., 24 hours) before use.
Bacterial strains were streaked on Blood Agar plates (5% sheep blood in Tryptic Soy Agar) and incubated at 37° C. for 24 hours. A single colony from each strain to be tested was inoculated in a TSB broth and grown for 12 hours, at 37° C. with shaking (225 rpm). For the bacterial biofilm inhibition assays, 1 μL of saturated overnight cell culture was added to either 80 μL of TSB-G, or TSB-G supplemented with the amino acid compound solution to be tested, in a 384-well plate. The cells were allowed to adhere to the plate for 60 minutes at 37° C. without shaking. The media was carefully aspirated and 80 μL of TSB-G, or TSB-G supplemented with the amino acid compound solution was added to the plate. The plate was further incubated for 24 hours at 37° C. without shaking. Media was carefully aspirated and the biofilm was measured by optical density at 600 nm. Eight or twelve replicates were performed for each tested condition and the reported values are normalized to the control (TSB-G media only). For the bacterial biofilm disruption assays, 80 μL of TSB-G was added to the plate, along with 1 μL of overnight cell culture. The cells were allowed to adhere to the plate for 60 minutes at 37° C. with no shaking. The media was carefully aspirated and 80 μL of TSB-G was added to the plate. The plate was further incubated for 24 hours at 37° C. with no shaking. Media was carefully aspirated from the mature biofilm and 80 μL of TSB-G, or TSB-G supplemented with the amino acid to be tested, was gently added to the plate. The plate was further incubated for 24 hours at 37° C. without shaking. Media was aspirated and the biofilm was measured by optical density at 600 nm. Twelve replicates were performed for each tested condition and the reported values are normalized to the control (TSB-G media only).

N[C@@H](CC(=O)O)C(=O)O [Aspartic Acid, L-aspartic acid]
Reduce B Biofilm: ●● (two dots [ie. ••] signifies major effect (greater than about 30% change))
